# Measurements published in the supplement of paper PMC10307832.
# What was measured:
# Test in all cases: relative viability (nuclei count vs DMSO), 5 days (fraction); higher = more cells survive
# R406 + Dasatinib = compound: COc1cc(Nc2ncc(F)c(Nc3ccc4c(n3)NC(=O)C(C)(C)O4)n2)cc(OC)c1OC [R406] + Cc1nc(Nc2ncc(C(=O)Nc3c(C)cccc3Cl)s2)cc(N2CCN(CCO)CC2)n1 [Dasatinib] (partner 0.075 µM)
# In short: (§1)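 Lung cancer cell lines in 1536-well plates got either a single drug or a fixed anchor-drug dose together with five library-drug doses (not always all listed) in √10 steps, by pin tool, on the day after seeding. Nuclei were counted after 5 days, and relative viability is the treated-to-vehicle ratio of nuclei counts. Values are medians of duplicate plates.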
# R406 + Linsitinib = compound: COc1cc(Nc2ncc(F)c(Nc3ccc4c(n3)NC(=O)C(C)(C)O4)n2)cc(OC)c1OC [R406] + C[C@]1(O)C[C@@H](c2nc(-c3ccc4ccc(-c5ccccc5)nc4c3)c3c(N)nccn32)C1 [Linsitinib] (partner 1 µM)
# In short: as §1
# Daporinad + Lapatinib = compound: O=C(/C=C/c1cccnc1)NCCCCC1CCN(C(=O)c2ccccc2)CC1 [Daporinad] + CS(=O)(=O)CCNCc1ccc(-c2ccc3ncnc(Nc4ccc(OCc5cccc(F)c5)c(Cl)c4)c3c2)o1 [Lapatinib] (partner 2 µM)
# In short: as §1
# R406 + Pemetrexed = compound: COc1cc(Nc2ncc(F)c(Nc3ccc4c(n3)NC(=O)C(C)(C)O4)n2)cc(OC)c1OC [R406] + Nc1nc2[nH]cc(CCc3ccc(C(=O)N[C@@H](CCC(=O)O)C(=O)O)cc3)c2c(=O)[nH]1 [Pemetrexed] (partner 0.2 µM)
# In short: as §1
Cell Line,relative viability (R406 + Dasatinib; first compound 0.08 µM),relative viability (R406 + Dasatinib; first compound 0.253 µM),relative viability (R406 + Dasatinib; first compound 0.8 µM),relative viability (R406 + Dasatinib; first compound 2.53 µM),relative viability (R406 + Dasatinib; first compound 8 µM),relative viability (R406 + Linsitinib; first compound 0.08 µM),relative viability (R406 + Linsitinib; first compound 0.253 µM),relative viability (R406 + Linsitinib; first compound 0.8 µM),relative viability (R406 + Linsitinib; first compound 2.53 µM),relative viability (R406 + Linsitinib; first compound 8 µM),relative viability (Daporinad + Lapatinib; first compound 0.0005 µM),relative viability (Daporinad + Lapatinib; first compound 0.001581 µM),relative viability (Daporinad + Lapatinib; first compound 0.005 µM),relative viability (Daporinad + Lapatinib; first compound 0.01581 µM),relative viability (R406 + Pemetrexed; first compound 0.08 µM),relative viability (R406 + Pemetrexed; first compound 0.253 µM),relative viability (R406 + Pemetrexed; first compound 0.8 µM),relative viability (R406 + Pemetrexed; first compound 2.53 µM),relative viability (R406 + Pemetrexed; first compound 8 µM)
NCI-H1395,0.441,0.444,0.434,0.399,0.356,1.02,1.26,1.18,0.866,0.727,0.885,1.12,0.977,1.23,0.865,1.01,0.856,0.865,0.434
NCI-H1437,0.439,0.408,0.369,0.286,0.131,1.01,1.26,1.24,0.904,0.49,0.704,0.879,0.867,0.85,0.297,0.316,0.317,0.259,0.203
NCI-H1563,0.438,0.507,0.448,0.473,0.376,1.12,1.31,1.29,1.2,1.16,1.1,1.07,0.844,0.862,0.707,0.929,0.794,0.659,0.444
NCI-H1651,0.402,0.468,0.451,0.221,0.198,0.862,1.1,1.06,0.829,0.5,0.803,1.09,0.796,0.984,0.475,0.679,0.573,0.548,0.508
NCI-H1666,0.811,0.943,0.891,0.648,0.409,0.837,0.792,0.872,0.735,0.449,0.612,0.633,0.739,0.752,0.825,1.05,0.86,0.718,0.674
NCI-H1734,0.537,0.559,0.459,0.393,0.27,0.912,0.859,0.949,0.818,0.554,1.05,1.08,0.986,0.65,0.394,0.417,0.453,0.45,0.322
NCI-H1755,0.401,0.508,0.407,0.264,0.135,0.924,1.02,1.02,0.779,0.688,1,1.03,1.06,1.07,0.474,0.419,0.426,0.385,0.33
NCI-H1792,0.781,0.906,0.871,0.551,0.401,0.484,0.387,0.744,0.411,0.505,0.837,0.987,0.838,0.932,0.838,1.07,1.39,0.0474,0.194
NCI-H1793,0.407,0.466,0.423,0.184,0.164,0.703,1.01,1.2,0.57,0.376,0.337,0.935,0.535,0.805,0.711,1.09,1.15,0.147,0.157
NCI-H1915,0.301,0.321,0.31,–,0.269,1.09,1.12,1.09,1.09,0.98,0.983,1.03,1.03,0.969,0.498,0.475,0.497,0.439,0.36
NCI-H1944,0.22,0.207,0.209,0.164,0.153,1.21,1.24,1.22,0.879,0.741,0.849,0.875,0.802,0.804,0.617,0.617,0.684,0.571,0.411
NCI-H1975,0.377,0.479,0.379,0.174,0.112,0.875,1.06,0.981,0.467,0.186,1.03,1,0.917,0.826,0.29,0.322,0.272,0.261,0.175
NCI-H1993,0.564,0.631,0.704,0.316,0.453,0.762,0.656,0.709,0.675,0.703,0.78,0.811,0.977,0.793,0.618,0.5,0.678,0.578,0.464
NCI-H2009,0.25,0.302,0.328,0.182,0.13,1.09,1.3,1.19,1.18,1.07,1.3,1.02,1.07,0.9,0.969,1.09,1.05,0.979,0.946
NCI-H2023,0.519,0.642,0.699,0.357,0.0963,0.633,0.714,0.62,0.253,0.55,0.699,0.946,0.76,0.843,0.216,0.223,0.199,0.19,0.124
